Measured values taken from PubChem BioAssay (NCI).
“And” between values parts separate entries of the source, which are not always exact repeats. Equal values may be shown once.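 96-well plates; 48 h exposure; 5 concentrations. Endpoints by linear interpolation between flanking doses. Not reached: highest tested concentration assigned. The concentration for 50% growth inhibition is given as GI50. TGI marks complete inhibition of growth.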

Assays:
Assay in all cases: inhibition of tumour cell growth, NCI panel, 48 h
[1] = system: NCI-H23 lung
[2] = system: RXF 393 renal
[3] = system: SF-268 CNS
[4] = system: A498 renal
[5] = system: OVCAR-4 ovarian
[6] = system: IGROV1 ovarian
[7] = system: SK-MEL-5 melanoma
[8] = system: NCI-H522 lung
[9] = system: NCI-H226 lung
[10] = system: MCF7 breast

| SMILES | GI50 [1] [µM] | TGI [1] | TGI [2] | GI50 [3] | TGI [3] | GI50 [4] [µM] | TGI [4] | GI50 [5] | TGI [5] | GI50 [6] | TGI [6] | GI50 [7] | TGI [7] | GI50 [8] | TGI [8] | GI50 [9] [µM] | TGI [9] | GI50 [10] [µM] | TGI [10] | GI50 [2] |
| --- | --- | --- | --- | --- | --- | --- | --- | --- | --- | --- | --- | --- | --- | --- | --- | --- | --- | --- | --- | --- |
| NC(=S)N/N=C/c1ncccc1O | 1.38 | 33.4 µM and 29.7 µM | 7.82 µM and 42.6 µM | 2.88 µM and 0.736 µM | 29.6 µM and 89.4 µM | 3.74 | 29.2 µM and 32.4 µM | 5.21 µM | > 929 µM | 2.88 µM | > 96.7 µM and 380 µM | 2.04 µM and 1.26 µM | 35.5 µM and 67.2 µM | 2.44 µM and 1.29 µM | > 42.9 µM and 87 µM | 4.3 | 18 µM and 122 µM | 2.55 | > 37.5 µM and 183 µM |  |
| COc1ccc(CNc2c3ccccc3nc3ccccc23)cc1F | 2.74 | 12.9 µM | 4.82 µM | 3.76 µM | 15.1 µM | 1.98 | 5.99 µM | 3.28 µM | 12.5 µM | 2.82 µM | 10.4 µM | 3.21 µM | 10.6 µM | 2.01 µM | 6.45 µM | 2.85 | 10.4 µM | 2.11 | 5.4 µM | 1.8 µM |
| COc1ccc2c(=O)oc3c(OC)cc(CCN(C)C)c4c(=O)oc1c2c34 |  | 32.7 µM and 17.5 µM | 35.2 µM and 16.8 µM |  | 28.4 µM and 16.6 µM |  | 34.8 µM and 17.6 µM | 3.47 µM and 8.43 µM | 12.3 µM and 16.1 µM | 15.9 µM and 3.03 µM | 29.6 µM and 11.5 µM |  | 24.7 µM and 14.7 µM |  | 25.6 µM and 13.9 µM |  | 33.2 µM and 50 µM |  | 12.9 µM | 18 µM and 7.95 µM |
| Cc1cc(C(=O)CSC(=S)SC(C)(C)C)ccc1Cl |  | > 100 µM | 29 µM |  | 33.1 µM |  | 29.8 µM |  | > 100 µM |  | > 100 µM |  | 31.7 µM |  | 30.3 µM |  | 42.7 µM |  | > 100 µM |  |
| CCN(Cc1c(F)cccc1OC)c1ccc(CO)c(Cl)c1 | 12.5 | 39.2 µM | 25.3 µM | 23.2 µM | > 63.5 µM | 0.0325 | 0.106 µM | 0.216 µM | 13 µM | < 0.036 µM |  | 11.9 µM | 24.2 µM | 13 µM | 29.6 µM | 0.0328 | 0.169 µM | 0.165 | 16.1 µM | 10.9 µM |
| COC(=O)/C=C/c1cc(OC(C)=O)c2c(c1)C(C(=O)OC)C(c1ccc(OC(C)=O)c(OC(C)=O)c1)O2 (stereo unspecified) | 0.171 | > 100 µM | 55.2 µM | 0.617 µM | > 100 µM | 0.948 | 5.58 µM | 0.345 µM | 49.7 µM | 0.589 µM | > 100 µM | 0.0572 µM | 1.98 µM | 0.0654 µM | 11.6 µM | 3.68 | 23.2 µM | 0.0353 | 48.6 µM | 0.167 µM |
| COc1cc2c(cc1OCCCN1CCN(CCCOc3cc4c(cc3OC)C(=O)N3CC(F)(F)C[C@H]3C=N4)CC1)N=C[C@@H]1CC(F)(F)CN1C2=O | 4.55 | 16.8 µM | 4.52 µM | 3.57 µM | 14.5 µM | 2.43 | 5.95 µM | 12.7 µM | 33.7 µM | 1.92 µM | 5.13 µM | 1.86 µM | 4.16 µM | 1.14 µM | 3.86 µM | 14 | 39.8 µM | 2.09 | 20.2 µM | 2.14 µM |
| COc1ccc(-c2c(C#N)c(N3CCOCC3)nc3[nH]c(=S)[nH]c(=S)c23)cc1OC | 20.9 | > 100 µM | > 100 µM | 31.6 µM | > 100 µM | > 100 | > 100 µM | 76.6 µM | > 100 µM | > 100 µM | > 100 µM | 27.5 µM | > 100 µM | > 100 µM | > 100 µM | 18.8 | 89.6 µM | 29.4 | > 100 µM | 62.6 µM |
| COc1ccc(Cl)cc1NC(=O)c1ccc(NC2=C(Cl)C(=O)N(Cc3ccccc3)C2=O)cc1 | 55.8 | > 100 µM | 79.3 µM | 25.3 µM | > 100 µM | > 100 | > 100 µM | > 100 µM | > 100 µM | > 100 µM | > 100 µM | 47.4 µM | > 100 µM | 17.5 µM | > 100 µM | > 100 | > 100 µM | 5.92 | 34.3 µM | 21.3 µM |
| COc1c(C)c(OCC=C(C)C)cc(CO)c1CO |  | > 100 µM | 78.2 µM |  | > 100 µM |  | > 100 µM |  | > 100 µM |  | > 100 µM |  | 59.1 µM |  | > 100 µM |  | > 100 µM |  | > 100 µM |  |
| COc1ccc(-c2cc(=O)oc3c4c(ccc23)OCN(Cc2ccc(F)cc2)C4)cc1 | 20.5 | 49.4 µM | 29.2 µM | 16.6 µM | 34.8 µM | 1.23 | 10.3 µM | 17.4 µM | 43.2 µM | 20.5 µM | 51.5 µM | 12.7 µM | 25.4 µM | 16.6 µM | 33.6 µM | 18.2 | 54.5 µM | 15.7 | 34.5 µM | 13 µM |
